Data on nine molecules can be found in PubChem BioAssay (NCI).

The structures appear in SMILES notation.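 1) Cells in 96-well plates. 2) Compound, 48 h, 5 concentrations. 3) Linear interpolation between surrounding doses. 4) Unreached endpoint = highest concentration. Abbreviation: GI50, concentration required for 50% inhibition of growth. TGI: total growth inhibition.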

Among the test systems are OVCAR-5 ovarian; HCT-15 colon; NCI-H23 lung; OVCAR-4 ovarian; MCF7 breast; ACHN renal; TK-10 renal; SNB-19 CNS; HL-60(TB) leukemia; SF-539 CNS.
Holding throughout (test): DTP human tumour cell line panel, 48 h

A word on the GI50: it is the concentration giving 50% growth inhibition. For orientation: TGI means the concentration giving total growth inhibition. High values mean less potent growth arrest, low ones more potent growth arrest. As for `CCOC(=O)/C=C/C(C(=O)/C=C/c1ccc(O)c(OC)c1)=C(O)\C=C\c1ccc(O)c(OC)c1`, the GI50 in the assay with OVCAR-5 ovarian was 3.17 µM; in the assay with HCT-15 colon, 2.27 µM; with NCI-H23 lung, 1.73 µM; with OVCAR-4 ovarian, 7.36 µM; in the assay on MCF7 breast, 7.52 µM; in the assay on ACHN renal, 2.36 µM. Besides, the GI50 was 5.3 µM with TK-10 renal and 5.14 µM with SNB-19 CNS. Moreover, the TGI in the assay on OVCAR-5 ovarian is 7.56 µM; with HCT-15 colon it was 6.99 µM; in the assay with NCI-H23 lung, 4.42 µM; in the assay with OVCAR-4 ovarian it was 25.7 µM; in the assay with MCF7 breast it was 67.5 µM; in the assay with ACHN renal, 6.25 µM. For the same molecule, the TGI turned out to be 29.2 µM with TK-10 renal and 27.2 µM with SNB-19 CNS.

As for `CO[C@@H]1CC(=O)C2(CC(=O)O[C@@H]2/C=C(\C)CCC=C(C)C)C[C@@H]1O` (stereo partly drawn), the GI50 with OVCAR-5 ovarian is 0.769 µM; in the assay on HL-60(TB) leukemia, 0.409 µM; with HCT-15 colon it was 0.56 µM; with NCI-H23 lung, 0.358 µM; with MCF7 breast, 0.199 µM; in the assay on ACHN renal, 0.817 µM. Further, the figures for the GI50 in the assay with TK-10 renal, in the assay on SNB-19 CNS and in the assay on SF-539 CNS were 1.26 µM, 1.23 µM and 0.502 µM, respectively. Moreover, the TGI in the assay on OVCAR-5 ovarian came out at 1.96 µM; with HL-60(TB) leukemia, 2.32 µM; in the assay on HCT-15 colon, 1.55 µM; in the assay with NCI-H23 lung, 1.14 µM; with MCF7 breast it was 1.17 µM; in the assay with ACHN renal, 1.78 µM. Also, the TGI in the assay with TK-10 renal stood at 3.35 µM; with SNB-19 CNS, 4.11 µM; in the assay with SF-539 CNS it was 1.56 µM.

For the molecule `O=C(Nc1ccc(Cl)cc1)c1cc(-c2ccc(Cl)cc2)c2sc(=O)[nH]c2n1`, the GI50 with OVCAR-5 ovarian is 3.41 µM; in the assay on HL-60(TB) leukemia, 1.27 µM; in the assay on HCT-15 colon it was 1.27 µM; with NCI-H23 lung, 1.24 µM; with OVCAR-4 ovarian, 2.02 µM; with MCF7 breast, 1.78 µM. In addition, the GI50 was 2.27 µM in the assay with ACHN renal, 3.64 µM with SNB-19 CNS and 2.43 µM in the assay with SF-539 CNS. For the same molecule, the TGI was 29.3 µM in the assay with OVCAR-5 ovarian; 6.68 µM with HL-60(TB) leukemia; 9.54 µM in the assay with HCT-15 colon; 6.85 µM with NCI-H23 lung; 9.98 µM with OVCAR-4 ovarian; 9.26 µM with MCF7 breast. The TGI with ACHN renal was 8.89 µM; with SNB-19 CNS it was > 100 µM; with SF-539 CNS, 11.6 µM.

Consider `Cc1c(C)[n+](=O)c(C)c(C)n1[O-]`, for which the GI50 in the assay with OVCAR-5 ovarian, with HCT-15 colon, in the assay on NCI-H23 lung, with OVCAR-4 ovarian, in the assay on MCF7 breast and in the assay with ACHN renal was > 100 µM in each case. For the same molecule, the GI50 in the assay on SNB-19 CNS and with SF-539 CNS was > 100 µM throughout. Further, the TGI in the assay with OVCAR-5 ovarian, in the assay on HCT-15 colon, with NCI-H23 lung, in the assay with OVCAR-4 ovarian, in the assay with MCF7 breast and in the assay with ACHN renal was > 100 µM each time. In addition, the TGI with SNB-19 CNS and in the assay on SF-539 CNS was > 100 µM throughout.

As to `COc1cc(/C=C2\CN(C)C/C(=C\c3cc(CN4CCCCC4)c(O)c(OC)c3)C2=O)cc(CN2CCCCC2)c1O`, the GI50 in the assay with OVCAR-5 ovarian was 2.29 µM; in the assay with HL-60(TB) leukemia, 2.8 µM; in the assay on HCT-15 colon, 3.29 µM; with NCI-H23 lung, 5.11 µM; with OVCAR-4 ovarian, 4.77 µM; in the assay with MCF7 breast, 2.93 µM. Moreover, the GI50 in the assay with ACHN renal is 3.95 µM; in the assay on SF-539 CNS, 2.75 µM. Moreover, the TGI is 5.81 µM in the assay on OVCAR-5 ovarian; 7.47 µM with HL-60(TB) leukemia; 12.7 µM in the assay with HCT-15 colon; 21.4 µM in the assay with NCI-H23 lung; 54.1 µM in the assay with OVCAR-4 ovarian; 13.9 µM in the assay on MCF7 breast. Moreover, the TGI in the assay on ACHN renal was determined as 13.9 µM; in the assay on SF-539 CNS it was 8.17 µM.

In the case of `COc1ccc(-c2ccc(-c3ccc(-c4ccc(C(=N)N)cc4)s3)s2)cc1OC`, the GI50 with OVCAR-5 ovarian was 1.44 µM; in the assay with HL-60(TB) leukemia, 7.47 µM; in the assay on NCI-H23 lung, 2.43 µM; in the assay with MCF7 breast, 0.39 µM; in the assay on ACHN renal, 3.79 µM; in the assay on SNB-19 CNS, 3.01 µM. For the same molecule, the GI50 in the assay with SF-539 CNS is 15.4 µM. Further, the TGI in the assay with OVCAR-5 ovarian turned out to be 3.6 µM; with HL-60(TB) leukemia, 28.1 µM; in the assay with NCI-H23 lung it was 6.26 µM; in the assay with MCF7 breast, 2.1 µM; in the assay with ACHN renal it was 15.3 µM; with SNB-19 CNS, 16.6 µM. The molecule also returned a TGI with SF-539 CNS of 38.7 µM.

Turning to `O=c1cc(-c2ccccc2)[nH]n1-c1nc2ccccc2[nH]1`, the GI50 is 12.5 µM in the assay with OVCAR-5 ovarian; 4.52 µM with HL-60(TB) leukemia; 3.44 µM in the assay with HCT-15 colon; 9.69 µM with NCI-H23 lung; 3.89 µM with MCF7 breast; 4.36 µM in the assay on ACHN renal. For the same molecule, the values for the GI50 with TK-10 renal, with SNB-19 CNS and in the assay with SF-539 CNS were 17.7 µM, 4.89 µM and 3.94 µM, respectively. Also, the TGI was > 100 µM in the assay on OVCAR-5 ovarian; 29.1 µM in the assay with HL-60(TB) leukemia; > 100 µM in the assay on HCT-15 colon; > 100 µM in the assay with NCI-H23 lung; > 100 µM in the assay on MCF7 breast; > 100 µM with ACHN renal. The figures for the TGI in the assay on TK-10 renal, with SNB-19 CNS and with SF-539 CNS were > 100 µM, > 100 µM and 27.1 µM, respectively.

Consider `COc1cc(-c2nc3sc4c(c3c(=O)[nH]2)CCCCCC4)cc(OC)c1OC`, for which the GI50 in the assay with OVCAR-5 ovarian is 2.23 µM; in the assay with HL-60(TB) leukemia, 1.36 µM; in the assay on HCT-15 colon, 0.649 µM; in the assay on NCI-H23 lung it was 1.43 µM; with MCF7 breast, 0.903 µM; in the assay on ACHN renal, 1.79 µM. Further, the GI50 in the assay on TK-10 renal is 13.8 µM; with SNB-19 CNS it was 1.56 µM; in the assay on SF-539 CNS, 0.673 µM. For the same molecule, the TGI in the assay with OVCAR-5 ovarian was > 33.2 µM; in the assay on HL-60(TB) leukemia it was 13 µM; in the assay with HCT-15 colon, > 33.2 µM; in the assay with NCI-H23 lung it was > 33.2 µM; in the assay on MCF7 breast, > 33.2 µM; in the assay with ACHN renal it was > 33.2 µM. The TGI in the assay on TK-10 renal is > 33.2 µM; in the assay with SNB-19 CNS it was > 33.2 µM; with SF-539 CNS, 2.08 µM.

Consider `COc1cccc(/C=C/c2cnc3ccccc3n2)c1OC`, for which the TGI is > 100 µM in the assay with OVCAR-5 ovarian; > 100 µM with HL-60(TB) leukemia; 92.7 µM in the assay on HCT-15 colon; > 100 µM in the assay with NCI-H23 lung; > 100 µM in the assay with OVCAR-4 ovarian; > 100 µM in the assay with MCF7 breast. Besides, the TGI with ACHN renal, in the assay with TK-10 renal and in the assay on SF-539 CNS was > 100 µM each time.
